Experimental data taken from patent US20160280651A1, “COMPOUNDS THAT INDUCE ABA RESPONSES” (THE REGENTS OF THE UNIVERSITY OF CALIFORNIA, priority 2013, published 2016).
“Also recorded” adds a separate entry of the source.

What was measured:
soybean plants = assay: Soybean drought stress assay; type: in vivo; conditions: 50 μM, aerosol every 3 days
Description: FIG. 8A-FIG. 8B. Quinabactin confers drought stress tolerance to wild-type plants. (A) Effect of quinabactin on Arabidopsis drought tolerance. Two-week-old plants were subjected to drought stress by withholding water and were photographed after 12 days. During the drought period, plants were treated every 3 days with 25 μM compound. Plants were re-hydrated after 2 weeks drought treatment; the number of surviving plants (out of total number tested) for each treatment is shown next to each image. (B) Effects of quinabactin on soybean. Two-week-old plants were subjected to drought stress by withholding water and photographed after 8 days drought treatment. […]
Physiological assays were performed on Arabidopsis plants grown at 22±2° C. and relative humidity (RH) 45±10% under a 16/8-h light/dark cycle. […] 12 4-week old plants were sprayed per compound or control analyzed. After overnight pre-treatment with compounds, the aerial portions were detached from roots, and their fresh weight measured at 20 min intervals over a 2 hour time period. […] The leaf impressions were analyzed by light microscopy and stomatal apertures were determined from the pore widths using ImageJ 1.43v software (National Institutes of Health, USA). […] Pots were covered in Parafilm to so that the water loss measured was transpiration mediated. […]

[1] = tested on: broccoli, radish, alfalfa, soybean, barely, wheat, sorghum and maize seeds; assay: Germination inhibition in diverse species; type: in vivo; conditions: barley
From the text: FIG. 13A-FIG. 13E. LC66C6 modulates ABA responses in diverse species. Germination inhibition (A) and transpirational water loss in detached leaves 2-hours after detachment (B) in response to compounds shown. The expression of ABA-responsive marker genes in Soybean (C), Barley (D) and Maize (E) after application of chemicals. D, P, L and A indicate DMSO, pyrabactin, LC66C6 and (+)-ABA, respectively.

## CCCN1C(=O)CCc2cc(NS(=O)(=O)Cc3ccc(C)cc3)ccc21 [LC66C6]
Soybean plants
  Drought stress tolerance: confers drought stress tolerance similar to that conferred by treatment with (+)-ABA
[1]
  Inhibition of germination in diverse species: inhibits germination; also recorded: greater than pyrabactin
